Residues, ends and D or L forms follow the SMILES beside them. *: point of attachment. Palmitoyl = CCCCCCCCCCCCCCCC(=O)*

This assay deals with E. coli. The experiment in a line: Viable colony count assay (bactericidal effect, 4 h). The assay is classed as cell-based, Escherichia coli (ATCC #25922). On the procedure:
The bactericidal effects of the peptides were examined using a viable colony count assay as well as the live/dead staining assay. For the viable colony count assay, bacteria were treated with peptides for 4 h and the resulting viable bacterial density of each sample was expressed by log10[CFU/mL]. For the Gram-positive bacteria tested, the decrease in bacterial density was dependent on the concentration of the ACA-PA (FIG. 8A). […] As for Gram-negative E. coli and MDR E. coli bacteria (FIG. 8B), the ACA nanorods, wherein the PA were added at a concentration above their CMC, had potent bactericidal effects. For example, the ACA nanorods at concentrations over 60 μM reduced the colony forming units of Gram-negative bacteria by about a five log unit reduction after 4 h compared with the untreated negative control sample.
The viable count assay was performed to quantify the bactericidal activity of each peptide. Stock solutions of peptides were diluted in 3% TSB media to concentrations ranging from 20 μM to 100 μM immediately before experiments. Heparin-ACA-PA were also prepared by mixing the ACA-PA stock solution with heparin (sodium salt from porcine intestinal mucosa, Sigma, St. Louis, MO) to 1:1, 1:2 and 1:3 weight ratios in water, and a final concentration of ACA-PA in the heparin-ACA-PA at each heparin weight ratio was adjusted to 80 μM for each experiment. The bacteria (10^6 CFU/mL) were incubated with peptides at 37° C. for 4 h. After incubation, serial dilutions of samples were plated on TSB agar and then incubated at 37° C. overnight. The colonies from each spot were manually counted, and the CFU number for each sample was determined. Experiments were conducted in triplicate and results were expressed as the log 10 values of the CFU number in each sample. Data were expressed by stand error of the mean (±S.E.M.) and N=3, *p<0.05 compared with control samples and #p<0.05 compared with bacteria treated with 40 μM of ACA-PA.

`CCCCCCCCCCCCCCCC(=O)N[C@H](C(=O)N[C@H](C(=O)N[C@H](C(=O)N[C@H](C(=O)N[C@@H](CCCCN)C(=O)N[C@@H](CCCCN)C(=O)N[C@@H](CCCCN)C(=O)N[C@@H](CCCCN)C(=O)NCC(=O)N[C@@H](C)C(=O)N[C@@H](CCCCN)C(=O)N[C@@H](CCCCN)C(=O)N[C@@H](C)C(=O)N[C@@H](CCCNC(=N)N)C(=O)N[C@@H](C)C(=O)N[C@@H](C)C(=O)N[C@@H](CCCCN)C(=O)N[C@@H](CCCCN)C(=O)N[C@@H](C)C(=O)N[C@@H](CCCNC(=N)N)C(=O)N[C@@H](C)C(=O)O)C(C)C)C(C)C)C(C)C)C(C)C` [ACA-PA, C16-V4K4G(AKKARA)2 (SEQ ID NO: 7)] (Palmitoyl-VVVVKKKKGAKKARAAKKARA-OH; N-terminus and C-terminus assumed): the “decrease in bacteria density” value (E. coli (Gram-negative), 60 to 100 μM) is 10,000 fold. For the same compound, the “reduction in bacteria density” value (E. coli, concentrations lower than CMC, 4 h) was “no significant reduction in Gram-negative bacteria density”. Where the note is “E. coli, over 60 μM, 4 h, vs untreated control”, the “reduction of colony forming units” value is listed as “five”.

The values are drawn from patent US12319752B2, “Heparin-binding cationic peptide self-assembling peptide amphiphiles useful against drug-resistant bacteria” (priority 2016, dated 2025).
